Experimental findings from US20110263610A1, “COMPOUNDS AND COMPOSITIONS AS ITPKB INHIBITORS” (IRM LLC, priority 2008, published 2011) are described below.

The target of the test is T1, ITPKb (Mus musculus, UniProt B2RXC2).
T1 construct: murine ITPKb residues 640-942; MGSDKIHHHHHH (His6 tag from MH4 plasmid) (N); made in house; host or cells: Escherichia coli HK100
T1 sequence (B2RXC2 640-942): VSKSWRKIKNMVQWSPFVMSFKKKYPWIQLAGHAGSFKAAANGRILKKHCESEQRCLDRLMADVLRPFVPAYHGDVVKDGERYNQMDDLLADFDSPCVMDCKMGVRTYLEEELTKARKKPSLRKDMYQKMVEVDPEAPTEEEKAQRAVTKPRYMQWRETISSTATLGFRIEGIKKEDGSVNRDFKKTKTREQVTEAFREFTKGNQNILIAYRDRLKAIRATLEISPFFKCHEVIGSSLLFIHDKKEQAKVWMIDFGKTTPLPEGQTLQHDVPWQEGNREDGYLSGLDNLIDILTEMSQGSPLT
Briefly: Biochemical measurement of ITPKb activity (Kinase-Glo ATP depletion assay); inhibiting the phosphorylation of IP3 to IP4. Details: species or system murine. As for the experimental part: Compounds of the present invention are assayed to measure their capacity to inhibit ITPKb according to the following assays.
The DNA sequence encoding murine ITPKb residues 640-942 is amplified from a full-length construct in mammalian expression vector pKDNZ by PCR. The 3′-primer incorporates a stop codon and an overhanging PacI site. The product is digested with Pad before being ligated into the MH4 plasmid which has been prepared by digestion with PmlI and PacI. Cloning into the MH4 plasmid adds the sequence MGSDKIHHHHHH to the N-terminus of the translated region. Mutant enzymes are made by site-directed mutagenesis using the Stratagene Quikchange kit.
ITPKb is expressed in the HK100 strain of Escherichia coli. Typically, a 4 L batch of cells is grown in LB with […] ampicillin to 0.5 A600 at 30 degrees C., before induction with 0.02% L-arabinose for 6 hours. Cells are harvested by centrifugation, and pellets are resuspended in 50 mL of 50 mM Tris (pH 8), 100 mM NaCl, 1 mM TCEP, and 0.1 mg/mL lysozyme, with 1 Complete protease inhibitor tablet (Roche). Cells are disrupted by sonication, and debris is removed by centrifugation for 40 minutes at 35000 g.
Initial purification is performed using three nickel-Sepharose Hi-Trap HP 1 mL columns (Amersham) connected in series. After application of the pellet supernatants, the bound material is washed with 20 mM Tris (pH 8.0), 20 mM imidazole, 10% glycerol (v/v), and 1 mM TCEP before elution with an imidazole gradient up to 200 mM.
Fractions containing ITPKb are identified by SDS-PAGE, and the pure fractions are concentrated and buffer exchanged using centriprep 20 15 kDa columns into 20 mM Tris (pH 8), 200 mM KCl, 5 mM MgCl2, 0.5 mM DTT, 10% glycerol, 1 μM IP3, and 20 μM ATP to a final protein concentration of 7 mg/mL.
ITPKb activity is determined using the Kinase-Glo (Promega) ATP depletion assay. The assay reaction buffer consists of 50 mM Tris (pH 8.0), 100 mM NaCl, 1 mM DTT, 10% glycerol, 5 mM MgCl2, 1 μM ATP, and 10 μM IP3 (Alexis Biochemicals). 50 nl of inhibitor is then added to each 40 μL reaction followed by a 10 μL addition of purified ITPKb (final concentration of 60 nM). The reaction mixture is incubated for 60 minutes at room temperature and stopped by the addition of an equal volume of kinase-glo reagent (Promega). Luminescence is measured using a Molecular Devices Acquest instrument.
Background: Kinase-Glo measures the ATP left after a reaction by luminescence.

Where [1] appears, read: read-out: IC50 in inhibiting the phosphorylation of IP3 to IP4.
The mark [2] stands for this setting: Table 2, inhibiting the phosphorylation of IP3 to IP4, read-out: IC50.
[3] abbreviates: Table 1, inhibiting the phosphorylation of IP3 to IP4, read-out: IC50.

As usually defined, the IC50 is the midpoint of a concentration-inhibition curve.

Structures are written as SMILES. Where two headings read alike, the source gives them in different places.

For `C[C@@H]1CN(Cc2c[nH]nc2-c2c[nH]c(C(N)=O)c2)CCN1c1ccc(C(F)(F)F)cn1` [Example 7, (R)-4-(4-((3-methyl-4-(5-(trifluoromethyl)pyridin-2-yl)piperazin-1-yl)methyl)-1H-pyrazol-3-yl)-1H-pyrrole-2-carboxamide], under setting [1], the IC50 was 2 nM.

With `C[C@@H]1CN(Cc2c[nH]nc2C2=CCNCC2)CCN1c1ccc(C(F)(F)F)cn1` [Example 9, (R)-2-methyl-4-((3-(1,2,3,6-tetrahydropyridin-4-yl)-1H-pyrazol-4-yl)methyl)-1-(5-(trifluoromethyl)pyridin-2-yl)piperazine], the IC50 under setting [2] came out at 278 nM.

`FC(F)(F)c1ccc(N2CCN(Cc3c[nH]nc3-c3cccs3)CC2)nc1` [Example 22]: the IC50 under setting [3] came to 4320 nM.

Turning to `C[C@@H]1CN(Cc2c[nH]nc2-c2cc(C(=O)NCCO)c[nH]2)CCN1c1ccc(C(F)(F)F)cn1` [Example 42], the IC50 under setting [3] worked out at 14 nM.

For the compound `C[C@@H]1CN(Cc2c[nH]nc2-c2cc(C(=O)N(C)C)c[nH]2)CCN1c1ccc(C(F)(F)F)cn1` [Example 41], under setting [3], the IC50 is 85 nM.

Regarding `C[C@@H]1CN(Cc2c[nH]nc2C(=O)N2CC(O)C2)CCN1c1ccc(C(F)(F)F)cn1` [Example 34], under setting [3], the half-inhibitory concentration (IC50) is over 10000 nM.

For the compound `C[C@@H]1CN(Cc2c[nH]nc2-c2ccc(C(=O)O)o2)CCN1c1ccc(C(F)(F)F)cn1` [Example 38], under setting [3], the IC50 came to 435 nM.

On to `C[C@@H]1CN(Cc2c[nH]nc2-c2ccc(C(N)=O)[nH]2)CCN1c1ccc(C(F)(F)F)cn1` [Example 5, (R)-5-(4-((3-methyl-4-(5-(trifluoromethyl)pyridin-2-yl)piperazin-1-yl)methyl)-1H-pyrazol-3-yl)-1H-pyrrole-2-carboxamide], for which the IC50 under setting [1] stood at 28 nM.

For the compound `C[C@@H]1CN(Cc2c[nH]nc2C2=CCN(C(=O)CCO)CC2)CCN1c1ccc(C(F)(F)F)cn1` [Example 54], under setting [3], the IC50 came to 80 nM.

With `C[C@@H]1CN(Cc2c[nH]nc2-c2nc(C#N)c[nH]2)CCN1c1ccc(C(F)(F)F)cn1` [Example 13, (R)-2-(4-((3-methyl-4-(5-(trifluoromethyl)pyridin-2-yl)piperazin-1-yl)methyl)-1H-pyrazol-3-yl)-1H-imidazole-4-carbonitrile], the IC50 under setting [2] is 102 nM.

For the compound `C[C@@H]1CN(Cc2c[nH]nc2/C=C2\NC(=N)NC2=O)CCN1c1ccc(C(F)(F)F)cn1` [Example 50], under setting [3], the IC50 was 99 nM.

In the case of `C[C@@H]1CN(Cc2c[nH]nc2C=C2NC(=O)NC2=O)CCN1c1ccc(C(F)(F)F)cn1` [Example 17, R-5-((4-((3-methyl-4-(5-(trifluoromethyl)pyridin-2-yl)piperazin-1-yl)methyl)-1H-pyrazol-3-yl)methylene)imidazolidine-2,4-dione], under setting [2], the IC50 was found to be 531 nM.

On to `C[C@@H]1CN(Cc2c[nH]nc2-c2cc3ccccc3[nH]2)CCN1c1ccc(C(F)(F)F)cn1` [Example 8, (R)-2-(4-((3-methyl-4-(5-(trifluoromethyl)pyridin-2-yl)piperazin-1-yl)methyl)-1H-pyrazol-3-yl)-1H-indole], for which the 50% inhibitory concentration (IC50) under setting [2] came out at 192 nM.

As to `Cc1cc(NC(=O)c2n[nH]cc2CN2CCN(c3ccc(C(F)(F)F)cn3)[C@H](C)C2)n(CCN(C)C)n1` [Example 32], under setting [3], the IC50 came to 6190 nM.

Turning to `C[C@@H]1CN(Cc2c[nH]nc2-c2ccc(C#N)[nH]2)CCN1c1ccc(C(F)(F)F)cn1` [Example 4, (R)-5-(4-((3-methyl-4-(5-(trifluoromethyl)pyridin-2-yl)piperazin-1-yl)methyl)-1H-pyrazol-3-yl)-1H-pyrrole-2-carbonitrile], the IC50 under setting [1] amounted to 81 nM.

For the compound `C[C@@H]1CN(Cc2c[nH]nc2C2CCNCC2)CCN1c1ccc(C(F)(F)F)cn1` [Example 48], the IC50 under setting [3] is 431 nM.

Turning to `C[C@@H]1CN(Cc2c[nH]nc2-c2cc(C(N)=O)co2)CCN1c1ccc(C(F)(F)F)cn1` [Example 53], under setting [3], the IC50 was found to be 78 nM.

In the case of `C[C@@H]1CN(Cc2c[nH]nc2-c2ccc3cnccc3c2)CCN1c1ccc(C(F)(F)F)cn1` [Example 20], under setting [3], the IC50 is 11 nM.

Turning to `N#Cc1c[nH]c(-c2n[nH]cc2CN2CCN(c3ccc(C(F)(F)F)cn3)[C@H](C(F)(F)F)C2)c1` [Example 29], the IC50 under setting [3] amounted to 9 nM.

Turning to `C[C@@H]1CN(Cc2c[nH]nc2-c2nc(-c3ccccc3)c[nH]2)CCN1c1ccc(C(F)(F)F)cn1` [Example 15, (R)-2-methyl-4-((3-(4-phenyl-1H-imidazol-2-yl)-1H-pyrazol-4-yl)methyl)-1-(5-(trifluoromethyl)pyridin-2-yl)piperazine], under setting [2], the IC50 worked out at 1230 nM.

For the compound `C[C@@H]1CN(Cc2c[nH]nc2-c2nc3cnccc3[nH]2)CCN1c1ccc(C(F)(F)F)cn1` [Example 16, (R)-2-(4-((3-methyl-4-(5-(trifluoromethyl)pyridin-2-yl)piperazin-1-yl)methyl)-1H-pyrazol-3-yl)-1H-imidazo[4,5-c]pyridine], the IC50 under setting [2] was 975 nM.

As to `COC(=O)c1ccc(-c2n[nH]cc2CN2CCN(c3ccc(C(F)(F)F)cn3)[C@H](C)C2)o1` [Example 37], the IC50 under setting [3] came to 984 nM.

As for `C[C@@H]1CN(Cc2c[nH]nc2-c2ccc(C#N)c(=O)[nH]2)CCN1c1ccc(C(F)(F)F)cn1` [Example 21], the IC50 under setting [3] was 49 nM.

In the case of `C[C@@H]1CN(Cc2c[nH]nc2-c2nc(C(F)(F)F)c[nH]2)CCN1c1ccc(C(F)(F)F)cn1` [Example 11, (R)-2-methyl-4-((3-(4-(trifluoromethyl)-1H-imidazol-2-yl)-1H-pyrazol-4-yl)methyl)-1-(5-(trifluoromethyl)pyridin-2-yl)piperazine], under setting [2], the IC50 stood at 1480 nM.

Regarding `C[C@@H]1CN(Cc2c[nH]nc2C(=O)Nc2ccncc2)CCN1c1ccc(C(F)(F)F)cn1` [Example 18, (R)-4-((3-methyl-4-(5-(trifluoromethyl)pyridin-2-yl)piperazin-1-yl)methyl)-N-(pyridin-4-yl)-1H-pyrazole-3-carboxamide], the IC50 under setting [2] was found to be 449 nM.

Regarding `C[C@@H]1CN(Cc2c[nH]nc2/C=C2\NC(=S)NC2=O)CCN1c1ccc(C(F)(F)F)cn1` [Example 46], the IC50 under setting [3] is over 10000 nM.

As for `C[C@@H]1CN(Cc2c[nH]nc2-c2cc(C(N)=O)c[nH]2)CCN1c1ccc(C(F)(F)F)cn1` [Example 2, (R)-5-(4-((3-methyl-4-(5-(trifluoromethyl)pyridin-2-yl)piperazin-1-yl)methyl)-1H-pyrazol-3-yl)-1H-pyrrole-3-carboxamide], the IC50 under setting [1] turned out to be 3 nM.

Regarding `NC(=O)c1c[nH]c(-c2n[nH]cc2CN2CCN(c3ccc(C(F)(F)F)cn3)[C@H](C(F)(F)F)C2)c1` [Example 51], under setting [3], the IC50 stood at 2 nM.

Regarding `C[C@@H]1CN(Cc2c[nH]nc2C(=O)Nc2cc(-c3ccco3)n[nH]2)CCN1c1ccc(C(F)(F)F)cn1` [Example 31], the IC50 under setting [3] worked out at 5330 nM.

Take `C[C@@H]1CN(Cc2c[nH]nc2-c2nc(C(N)=O)c[nH]2)CCN1c1ccc(C(F)(F)F)cn1` [Example 14, (R)-2-(4-((3-methyl-4-(5-(trifluoromethyl)pyridin-2-yl)piperazin-1-yl)methyl)-1H-pyrazol-3-yl)-1H-imidazole-4-carboxamide]: under setting [2], the IC50 worked out at 24 nM.

As to `C[C@@H]1CN(Cc2c[nH]nc2-c2cc(C(=O)N[C@@H](C)CO)c[nH]2)CCN1c1ccc(C(F)(F)F)cn1` [Example 45], the IC50 under setting [3] is 6 nM.

For the compound `C[C@@H]1CN(Cc2c[nH]nc2-c2cc(C(=O)O)co2)CCN1c1ccc(C(F)(F)F)cn1` [Example 52], the IC50 under setting [3] was determined as 1040 nM.

For the compound `C[C@@H]1CN(Cc2c[nH]nc2C2=CCN(C=O)CC2)CCN1c1ccc(C(F)(F)F)cn1` [Example 10, (R)-4-(4-((3-methyl-4-(5-(trifluoromethyl)pyridin-2-yl)piperazin-1-yl)methyl)-1H-pyrazol-3-yl)-5,6-dihydropyridine-1(2H)-carbaldehyde], the IC50 under setting [2] was determined as 10 nM.
